From PubChem BioAssay (NCI)
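These data come from cells grown in 96-well plates and exposed to compound for 48 hours at five concentrations. TGI marks complete inhibition of growth.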

Experiments:
Assay in all cases: inhibition of tumour cell growth, NCI panel, 48 h
[1] = test system: CCRF-CEM leukemia
[2] = test system: COLO 205 colon
[3] = test system: DU-145 prostate
[4] = test system: HCT-15 colon
[5] = test system: IGROV1 ovarian
[6] = test system: MDA-N
[7] = test system: SF-539 CNS
[8] = test system: SK-MEL-5 melanoma
[9] = test system: SK-OV-3 ovarian
[10] = test system: UACC-62 melanoma

COC(=O)C1Cc2c([nH]c3ccccc23)C(c2cccc(O)c2)N1 (centres undefined)
TGI [1]: 43.2 µM
TGI [2]: 90.3 µM
TGI [3]: 55.3 µM
TGI [4]: > 100 µM
TGI [5]: > 100 µM
TGI [6]: 40.1 µM
TGI [7]: > 100 µM
TGI [8]: > 100 µM
TGI [9]: > 100 µM
TGI [10]: > 100 µM

CC12CC3CC/C(=N\O)C(C1)C3(N1CCOCC1)C/C2=N/O (centres undefined)
TGI [1]: > 100 µM
TGI [2]: > 100 µM
TGI [3]: > 100 µM
TGI [4]: > 100 µM
TGI [5]: > 100 µM
TGI [6]: > 100 µM
TGI [7]: > 100 µM
TGI [8]: > 100 µM
TGI [9]: > 100 µM
TGI [10]: > 100 µM

O/N=c1/ccn(O)c2ccccc12
TGI [1]: 3.34 µM
TGI [2]: 4.74 µM
TGI [3]: 7.76 µM
TGI [4]: 5.21 µM
TGI [5]: 5.12 µM
TGI [6]: 17.5 µM
TGI [7]: 2.41 µM
TGI [8]: 2.77 µM
TGI [9]: 3.26 µM
TGI [10]: 2.53 µM

Cc1cc2nc(N3C(=O)/C(=C/c4cccc([N+](=O)[O-])c4)N=C3c3ccccc3)sc2cc1C
TGI [1]: 23.4 µM
TGI [2]: > 100 µM
TGI [3]: > 100 µM
TGI [4]: > 100 µM
TGI [5]: > 100 µM
TGI [6]: 34.1 µM
TGI [7]: > 100 µM
TGI [8]: > 100 µM
TGI [9]: > 100 µM
TGI [10]: > 100 µM

O=C1/C(=C\c2ccc([N+](=O)[O-])cc2)Sc2scc(-c3ccc(O)c(O)c3)[n+]21
TGI [1]: 16.3 µM
TGI [2]: 6.07 µM
TGI [3]: 37.2 µM
TGI [4]: 14.1 µM
TGI [5]: 19.7 µM
TGI [6]: 25.6 µM
TGI [7]: 22.5 µM
TGI [8]: 13.4 µM
TGI [9]: 26.2 µM
TGI [10]: 23.4 µM

COc1c(Cl)ccc(Cl)c1C(=O)NNC(=O)c1c(Cl)c(Cl)c(Cl)c(Cl)c1-c1nc2ccc(C(=O)c3ccccc3)cc2[nH]1
TGI [1]: > 100 µM
TGI [2]: > 100 µM
TGI [3]: > 100 µM
TGI [4]: > 100 µM
TGI [5]: > 100 µM
TGI [6]: > 100 µM
TGI [7]: > 100 µM
TGI [8]: > 100 µM
TGI [9]: > 100 µM

CC(=O)Oc1ccc(N2C(=O)C3c4[nH]c5ccccc5c4C4CCC(C(C)(C)C)CC4C3C2=O)cc1 (centres undefined)
TGI [1]: 13.2 µM
TGI [2]: 17.5 µM
TGI [3]: 12.2 µM
TGI [4]: 12.3 µM
TGI [5]: 19.9 µM
TGI [6]: 14.1 µM
TGI [7]: 18.3 µM
TGI [8]: 8.19 µM
TGI [9]: 24 µM
TGI [10]: 20.7 µM

CC(=O)N1c2ccccc2C(C)(C)OC1C(Cl)(Cl)Cl (centres undefined)
TGI [1]: > 100 µM
TGI [2]: > 100 µM
TGI [3]: > 100 µM
TGI [4]: > 100 µM
TGI [5]: > 100 µM
TGI [6]: 83.1 µM
TGI [7]: > 100 µM
TGI [8]: 53.4 µM
TGI [9]: > 100 µM
TGI [10]: > 100 µM

Cc1cccc(/C=N/NC(=S)NCc2ccccn2)n1
TGI [1]: > 100 µM
TGI [2]: > 100 µM
TGI [3]: > 100 µM
TGI [4]: > 100 µM
TGI [5]: > 100 µM
TGI [6]: > 100 µM
TGI [7]: 67.9 µM
TGI [8]: 70.9 µM
TGI [9]: 97.7 µM
TGI [10]: 54.3 µM

COc1ccc2c(c1)c1nn(CCN(C)C)c3ccc4c(=O)n(CCN(C)C)c(=O)n2c4c13
TGI [1]: 0.107 µM
TGI [2]: 0.182 µM
TGI [3]: 0.603 µM
TGI [4]: 0.173 µM
TGI [5]: 1.65 µM
TGI [6]: 0.186 µM
TGI [7]: 1.77 µM
TGI [8]: 0.784 µM
TGI [9]: 0.304 µM
TGI [10]: 0.474 µM

O=C(CCCN1CCC2(CC1)C(=O)NC(=O)N2c1ccccc1)c1ccc(F)cc1
TGI [1]: > 100 µM
TGI [2]: > 100 µM
TGI [3]: > 100 µM
TGI [4]: > 100 µM
TGI [5]: > 100 µM
TGI [6]: > 100 µM
TGI [7]: > 100 µM
TGI [8]: > 100 µM
TGI [9]: > 100 µM
TGI [10]: > 100 µM
